According to US10435439B2, “Peptide with safer secondary structure, peptide library, and production methods for same” (The University of Tokyo, priority 2010, dated 2019):
*1 amine or outer side, *2 acyl side, *3 side chain or, on linkers, in order; H or OH if unused. Where a SMILES comes first, the peptide text is derived from it. Bridges are numbered along the chain shown (N, C = ends). [ ]: non-standard residue; d: D form. Nle(4-yne,6-yl) = O=C([C@H](CC#CC[*:3])N[*:1])[*:2]

Biological target: Bcl-2 protein having His tag on the C terminal side (Homo sapiens, UniProt P10415)
Test: Binding ability to Bcl-2 by SPR (Surface Plasmon Resonance), dissociation constant
Conditions: His-tagged Bcl-2 immobilized on Ni substrate, solid-phase synthesized peptide, KD from binding and dissociation rates
Experimental: Next, a crosslinked peptide having the amino acid sequence as shown in the above table was synthesized by using a Fmoc solid-phase method and its binding ability was evaluated by calculating a dissociation constant (KD) in accordance with an evaluation method using SPR (Surface Plasmon Resonance).
Described specifically, first, a solution containing NiCl2 was applied on a substrate to which Ni could be bound and then Bcl-2 protein having His tag on the C terminal side thereof was applied to immobilize the protein on the substrate. Then, a solution containing a solid-phase synthesized peptide was added successively while appropriately changing the concentration. During addition, a change in refractive index depending on the weight on the substrate was read and bond strength was evaluated based on the binding rate and dissociation rate of the peptide calculated.

Chain of Bcl-2 protein having His tag on the C terminal side (P10415 whole entry): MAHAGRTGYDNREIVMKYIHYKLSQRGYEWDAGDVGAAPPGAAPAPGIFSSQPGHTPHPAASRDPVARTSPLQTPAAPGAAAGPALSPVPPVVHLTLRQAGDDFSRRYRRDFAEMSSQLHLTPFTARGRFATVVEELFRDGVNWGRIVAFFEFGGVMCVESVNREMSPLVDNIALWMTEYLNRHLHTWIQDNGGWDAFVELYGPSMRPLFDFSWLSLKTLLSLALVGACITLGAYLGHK

| Kd | Structure (SMILES) |
| --- | --- |
| > 0.1 nM | CC(=O)N[C@@H](Cc1ccccc1)C(=O)N[C@@H](Cc1ccccc1)C(=O)N[C@@H](CC(N)=O)C(=O)N[C@@H](CCCNC(=N)N)C(=O)N[C@@H](Cc1c[nH]cn1)C(=O)N[C@@H](CC(N)=O)C(=O)N[C@@H](CC(N)=O)C(=O)N[C@@H](C)C(=O)N[C@@H](Cc1ccc(O)cc1)C(=O)N[C@@H](Cc1ccc(O)cc1)C(=O)N[C@H](C(=O)N[C@H]1CC#CCSC[C@@H](C(=O)N[C@@H](CC(C)C)C(=O)NCC(=O)N[C@@H](CCCNC(=N)N)C(=O)N[C@@H](CC(C)C)C(=O)N[C@@H](Cc2ccc(O)cc2)C(=O)N[C@@H](CCCNC(=N)N)C(=O)N[C@@H](CC(C)C)C(=O)N[C@@H](CC(C)C)C(N)=O)NC(=O)[C@H](C)NC(=O)[C@H](Cc2ccc(O)cc2)NC(=O)CNC1=O)[C@@H](C)O [A-4] (Ac-FFNRHNNAYYT[Nle(4-yne,6-yl)]GYACLGRLYRLL-NH2; thioether 12-16) |
| 0.17 nM | CC[C@H](C)[C@H](NC(=O)[C@H](Cc1c[nH]cn1)NC(=O)[C@H](CCCNC(=N)N)NC(=O)[C@H](CO)NC(=O)[C@H](C)NC(=O)[C@H](CC(=O)O)NC(=O)[C@H](Cc1ccc(O)cc1)NC(=O)[C@H](CO)NC(=O)[C@H](CC(=O)O)NC(=O)[C@H](C)NC(=O)[C@H](CC(C)C)NC(=O)[C@@H]1CSCC#CC[C@H](NC(=O)[C@@H](NC(=O)[C@@H](NC(=O)[C@H](Cc2ccccc2)NC(C)=O)[C@@H](C)CC)[C@@H](C)CC)C(=O)N[C@@H](CCCNC(=N)N)C(=O)N[C@@H](Cc2ccccc2)C(=O)N[C@@H](CO)C(=O)N1)C(=O)N[C@@H](Cc1ccccc1)C(N)=O [A-5] (Ac-FII[Nle(4-yne,6-yl)]RFSCLADSYDASRHIF-NH2; thioether 4-8) |
| 0.37 nM | CC[C@H](C)[C@@H]1NC(=O)[C@H]([C@@H](C)O)NC(=O)[C@@H](NC(=O)[C@H](Cc2c[nH]cn2)NC(=O)[C@@H]2CCCN2C(=O)[C@H](Cc2ccccc2)NC(C)=O)CC#CCSC[C@@H](C(=O)N[C@@H](CCCNC(=N)N)C(=O)N[C@@H](C)C(=O)N[C@@H](CC(=O)O)C(=O)N[C@@H](CO)C(=O)N[C@@H](Cc2ccc(O)cc2)C(=O)N[C@@H](CC(=O)O)C(=O)N[C@@H](CO)C(=O)N[C@@H](Cc2ccc(O)cc2)C(=O)N[C@H](C(=O)N[C@@H](CCCNC(=N)N)C(=O)N[C@@H](CC(C)C)C(=O)N[C@@H](C)C(=O)N[C@@H](C)C(=O)N[C@H](C(=O)N[C@@H](Cc2ccccc2)C(=O)N[C@@H](CC(C)C)C(N)=O)[C@@H](C)O)C(C)C)NC(=O)[C@H](C)NC1=O [A-1] (Ac-FPH[Nle(4-yne,6-yl)]TIACRADSYDSYVRLAATFL-NH2; thioether 4-8) |
| > 0.1 nM | CC(=O)N[C@@H](Cc1ccccc1)C(=O)N[C@@H](CC(C)C)C(=O)N[C@@H](CC(N)=O)C(=O)N[C@@H](CCCNC(=N)N)C(=O)N[C@@H](Cc1c[nH]cn1)C(=O)N[C@@H](CC(N)=O)C(=O)N[C@@H](CC(N)=O)C(=O)N[C@@H](C)C(=O)N[C@@H](Cc1ccc(O)cc1)C(=O)N[C@@H](Cc1ccc(O)cc1)C(=O)N[C@H](C(=O)N[C@H]1CC#CCSC[C@@H](C(=O)N[C@@H](CC(C)C)C(=O)NCC(=O)N[C@@H](CCCNC(=N)N)C(=O)N[C@@H](CC(C)C)C(=O)N[C@@H](Cc2ccc(O)cc2)C(=O)N[C@@H](CCCNC(=N)N)C(=O)N[C@@H](CC(C)C)C(=O)N[C@@H](CC(C)C)C(N)=O)NC(=O)[C@H](C)NC(=O)[C@H](Cc2ccc(O)cc2)NC(=O)CNC1=O)[C@@H](C)O [A-3] (Ac-FLNRHNNAYYT[Nle(4-yne,6-yl)]GYACLGRLYRLL-NH2; thioether 12-16) |
